13 molecules from patent US20220315567A1 (priority 2016, published 2022) can be followed below.

Each structure is given as a SMILES string. Like-named read-outs stand apart in the source and are kept apart here.

The target in assay [1] is T1, human OPRM1 (μ, MOR) (Homo sapiens, UniProt P35372).
T1 construct: host or cells: CHO-K1
Nature of the assay: cell-based. The following applies: for Emax: OPRM1, read-out: cAMP Emax; for EC50: PathHunter human OPRM1 Arrestin CHO-K1 cell line, read-out: cAMP EC50. As for the experimental part:
G-protein signaling was measured via second messenger cAMP modulation. Detection of cAMP modulation was accomplished in the PathHunter human OPRM1 (μ, MOR) Arrestin CHO-K1 cell line using the Dynamic2 cAMP Kit from Cisbio.

Assay [2] has as its target T1, human OPRM1 (μ, MOR). Nature of the assay: cell-based. The following applies: for Emax: OPRM1, read-out: β-Arrestin Emax; for EC50: PathHunter human OPRM1 Arrestin CHO-K1 cell line, read-out: β-Arrestin EC50. As for the experimental part: The Discoverx PathHunter® β-Arrestin assay is used to measure β-arrestin-2 activity. The technology is based on Enzyme Fragment Complementation (EFC) with β-galactosidase (β-Gal) as the reporter. […] EA is fused to Q-arrestin-2, and ED is fused to the C-terminus of the GPCR of interest. When a ligand binds and the GPCR is activated, Q-arrestin-2 is recruited to the receptor resulting in an ED/EA complementation, restoring f-Gal activity, which is measured using chemiluminescence. For this assay, the PathHunter human OPRM1 (μ, MOR) Arrestin CHO-K1 cell line was used.

For assay [3], the target named is T1, human OPRM1 (μ, MOR). Format: cell-based. Particulars: for ΔRA of compound: relative activity from EC50 and Emax of β-arrestin vs cAMP, lower RA = more G-protein biased. As for the experimental part: In certain embodiments, the ability of a compound to activate G-protein or β-arrestin is not an on/off switch for a given pathway, but rather a continuous function. To capture this, each compound is measured for activity in cell assays that are linked to β-arrestin recruitment and G-protein signaling. By comparing the activity between these two measures (accounting for both EC50 and maximal response reached, Emax) a relative activity (RA) value is determined.
In the case of MOR it is desirable to have high activation of the G-protein pathway while reducing activation of β-arrestin. In the case of the formula above, this means a lower RA.

T1 sequence (P35372 whole entry): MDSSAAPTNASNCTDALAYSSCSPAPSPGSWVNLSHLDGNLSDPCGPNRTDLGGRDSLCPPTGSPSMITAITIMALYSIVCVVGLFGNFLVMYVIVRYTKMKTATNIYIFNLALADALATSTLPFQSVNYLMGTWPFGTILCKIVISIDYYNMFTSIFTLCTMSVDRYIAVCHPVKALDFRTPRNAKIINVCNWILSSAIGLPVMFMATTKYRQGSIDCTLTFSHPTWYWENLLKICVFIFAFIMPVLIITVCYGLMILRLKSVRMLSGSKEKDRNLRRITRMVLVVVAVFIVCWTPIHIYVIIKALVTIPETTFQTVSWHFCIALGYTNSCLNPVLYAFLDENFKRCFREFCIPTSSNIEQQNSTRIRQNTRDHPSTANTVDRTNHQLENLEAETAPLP

In the case of `CN(C)C1(CNC(=O)N2Cc3ccc(F)cc3C2)CCCC1` [Compound 63], in assay [1], the maximal response (Emax) (as a rule, the greatest response seen or fitted, relative to the assay's reference) was determined as 87.9% and the EC50 (in general, the concentration needed to bring the measured effect to its halfway point) amounted to 2510 nM. In addition, in assay [2], the Emax was less than 1% and the EC50 was more than 100 µM. Moreover, in assay [3], the “Bias Factor (ΔRA of compound relative to ΔRA of DAMGO) × 10” value is given as less than −14.83 and the ΔRA of compound was less than −2.96.
Take `CN(C)C1(CNC(=O)N2Cc3ccccc3C2)CCCC1` [Compound 64]: in assay [1], the Emax came to 88.7% and the EC50 is 2150 nM. Besides, in assay [2], the Emax was less than 1% and the EC50 is more than 100 µM. In addition, in assay [3], the “Bias Factor (ΔRA of compound relative to ΔRA of DAMGO) × 10” value is on record as less than −14.83 and the ΔRA of compound is less than −2.96.
`CN(C)C(CNC(=O)N1CCCc2ccccc21)c1ccccc1` (stereo not drawn) [Compound 69a]: in assay [1], the Emax stood at 110% and the EC50 came out at 563 nM. For the same molecule, in assay [2], the Emax was 8% and the EC50 is 8.56 µM. For the same molecule, in assay [3], the “Bias Factor (ΔRA of compound relative to ΔRA of DAMGO) × 10” value was −8.38 and the ΔRA of compound was −2.32.
With `CN(C)C(CNC(=O)N1CCCc2cc(F)ccc21)c1ccccc1` (stereo not drawn) [Compound 70a], in assay [1], the Emax was 90.3% and the EC50 is 512 nM. In assay [2], the maximum response (Emax) amounted to 5.3% and the EC50 is 11 µM. Further, in assay [3], the “Bias Factor (ΔRA of compound relative to ΔRA of DAMGO) × 10” value is on record as −10.82 and the ΔRA of compound is on record as −2.56.
For `CN(C)[C@H](CCNC(=O)N1CC[C@H](c2ccccc2)C1)c1ccsc1` [Compound 75], in assay [1], the Emax turned out to be 114% and the EC50 amounted to 2090 nM. For the same molecule, in assay [2], the Emax worked out at 12.2% and the EC50 was 17 µM. In addition, in assay [3], the “Bias Factor (ΔRA of compound relative to ΔRA of DAMGO) × 10” value is −3.97 and the ΔRA of compound is −1.88.
In the case of `CN(C)[C@H](CCNC(=O)N1CC[C@@H](c2ccccc2)C1)c1ccsc1` [Compound 76], in assay [1], the Emax came to 33% and the EC50 turned out to be 1760 nM. In assay [2], the Emax was less than 1% and the EC50 was more than 100 µM. For the same molecule, in assay [3], the “Bias Factor (ΔRA of compound relative to ΔRA of DAMGO) × 10” value is less than −14.83 and the ΔRA of compound is recorded as less than −2.96.
On to `CN(C)[C@@H](CCNC(=O)N1CC[C@@H](c2ccccc2)C1)c1ccsc1` [Compound 77], for which, in assay [1], the Emax stood at 33.2% and the EC50 was 1100 nM. For the same molecule, in assay [2], the Emax was less than 1% and the EC50 was more than 100 µM. In assay [3], the “Bias Factor (ΔRA of compound relative to ΔRA of DAMGO) × 10” value is less than −14.83 and the ΔRA of compound is listed as less than −2.96.
Regarding `CNC(CNC(=O)N1Cc2ccccc2C1)c1ccsc1` (stereo not drawn) [Compound 78], in assay [1], the “cAMP Emax” value was determined as 104.0% and the EC50 was found to be 362 nM. Besides, in assay [2], the “β-Arrestin Emax” value was 12.8% and the EC50 is more than 100 µM. In addition, in assay [3], the “Bias Factor (ΔRA of compound relative to ΔRA of DAMGO) × 10” value was less than −14.83 and the ΔRA of compound is on record as less than −2.96.
Regarding `CNC(CNC(=O)N1Cc2ccccc2C1)c1ccsc1` (stereo not drawn) [Compound 79], in assay [1], the “cAMP Emax” value was found to be 64.2% and the EC50 is 87 nM. In assay [2], the “β-Arrestin Emax” value is 1.7% and the EC50 is more than 100 µM. In addition, in assay [3], the “Bias Factor (ΔRA of compound relative to ΔRA of DAMGO) × 10” value is reported as less than −14.83 and the ΔRA of compound was less than −2.96.
Take `CNC(CNC(=O)N1Cc2cccc(F)c2C1)c1ccsc1` (stereo not drawn) [Compound 80]: in assay [1], the Emax came out at 103% and the EC50 came out at 41 nM. Further, in assay [2], the “β-Arrestin Emax” value is on record as 25.2% and the EC50 is 1.4 µM. Also, in assay [3], the “Bias Factor (ΔRA of compound relative to ΔRA of DAMGO) × 10” value was −6.64 and the ΔRA of compound is recorded as −2.14.
With `CNC(CNC(=O)N1Cc2cccc(F)c2C1)c1ccsc1` (stereo not drawn) [Compound 81], in assay [1], the “cAMP Emax” value is given as 91.6% and the EC50 came out at 14 nM. In assay [2], the “β-Arrestin Emax” value was 8.2% and the EC50 was more than 100 µM. Besides, in assay [3], the “Bias Factor (ΔRA of compound relative to ΔRA of DAMGO) × 10” value is reported as less than −14.83 and the ΔRA of compound was less than −2.96.
With `CNC(CNC(=O)N1Cc2ccc(F)cc2C1)c1ccc(OC)cc1` (stereo not drawn) [Compound 82], in assay [1], the Emax is 83.2% and the EC50 worked out at 457 nM. Moreover, in assay [2], the “β-Arrestin Emax” value was found to be 2.7% and the EC50 was more than 100 µM. In assay [3], the “Bias Factor (ΔRA of compound relative to ΔRA of DAMGO) × 10” value is less than −14.83 and the ΔRA of compound is given as less than −2.96.
For the molecule `CNC(CNC(=O)N1Cc2ccc(F)cc2C1)c1ccc(OC)cc1` (stereo not drawn) [Compound 83], in assay [1], the “cAMP Emax” value turned out to be 100.1% and the half-maximal effective concentration (EC50) came out at 57 nM. In addition, in assay [2], the “β-Arrestin Emax” value was found to be 13.4% and the EC50 was more than 100 µM. In assay [3], the “Bias Factor (ΔRA of compound relative to ΔRA of DAMGO) × 10” value is less than −14.83 and the ΔRA of compound was less than −2.96.
